From ChEMBL document CHEMBL1134647, “Design and synthesis of non-peptidic inhibitors for the Syk C-terminal SH2 domain based on structure-based in-silico screening” (J Med Chem, 2001)

How the values were obtained:
Format in all cases: functional
[1] = molecular target: T1, Tyrosine-protein kinase SYK (Homo sapiens, UniProt P43405); assay: Inhibitory activity against Syk C-terminal SH2.
[2] = molecular target: T1, Tyrosine-protein kinase SYK; assay: Inhibitory activity against Syk C-terminal SH2 at 10 mM
[3] = molecular target: T1, Tyrosine-protein kinase SYK; assay: Inhibitory activity against Syk C-terminal SH2 (at 10 mM)
[4] = molecular target: T1, Tyrosine-protein kinase SYK; assay: Inhibitory activity against Syk C-terminal SH2 domain in in-silico screening

IC50 [1] [µM]	SMILES	also measured
63	CC(C)CCCCN(CCCCCC(=O)O)S(=O)(=O)/C=C/c1ccc(NC(=O)[C@H]2CC[C@@H](C(C(=O)O)C(=O)O)CC2)cc1	–
69	CC(C)CCCCN(CCCCCC(=O)O)S(=O)(=O)/C=C/c1ccc(NC(=O)[C@H]2CC[C@H](C(C(=O)O)C(=O)O)CC2)cc1	–
350	O=C(O)CCCCCNS(=O)(=O)/C=C/c1ccc(NC(=O)[C@H]2CC[C@H](C(C(=O)O)C(=O)O)CC2)cc1	–
–	O=C(O)CCCNS(=O)(=O)/C=C/c1ccccc1	inhibition [2]: 2.3%
41	O=C(O)CCCCCN(CCCC1CCCCC1)S(=O)(=O)/C=C/c1ccc(NC(=O)C2CC=C(C(C(=O)O)C(=O)O)CC2)cc1 (stereo not given)	–
12000	O=C(O)C(C(=O)O)c1ccccc1	–
71	CC(C)CCCCN(CCCCCC(=O)O)S(=O)(=O)/C=C/c1ccc(NC(=O)C2CC=C(C(C(=O)O)C(=O)O)CC2)cc1 (stereo not given)	–
40	O=C(O)CCCCCN(CCCC1CCCCC1)S(=O)(=O)/C=C/c1ccc(NC(=O)[C@H]2CC[C@@H](C(C(=O)O)C(=O)O)CC2)cc1	–
–	Nc1cccc2c(S(=O)(=O)NCC(=O)O)cccc12	inhibition [2]: 39%
38	O=C(O)CCCCCN(CCCC1CCCCC1)S(=O)(=O)/C=C/c1ccc(NC(=O)[C@H]2CC[C@H](C(C(=O)O)C(=O)O)CC2)cc1	–
7700	O=C(O)C(C(=O)O)C1CC/C=C\CCC1 (stereo not given)	–
–	O=C(O)CCNS(=O)(=O)c1ccc(F)cc1	inhibition [2]: 0.9%
–	O=C(O)CCCCCNS(=O)(=O)/C=C/c1ccccc1	IC50 [3]: 8000 µM
5900	O=C(O)C(C(=O)O)C1CCCCC1	–
–	NC(Cc1ccc(CP(=O)(O)O)cc1)C(=O)O (stereo not given)	IC50 [4]: 14000 µM
